Reference: patent publication US10519125B2, “Flavagline derivatives” (PIERRE FABRE MEDICAMENT, priority 2014, dated 2019)

Columns and labels:
[1] = tested on: HCT116 line (human colon cancer cell line); assay: Antiproliferative (cytotoxic) activity on HCT116 line, ATPLite cell viability, 72 hours; format: cell-based; settings: HCT-116, HCT116, 72 hours after addition, ATPLite, read-out: HCT116 (EC50)
Protocol: 2.1. Antiproliferative Activity of the Compounds According to the Invention (IC50 in M)
Culture of Lines and Measurement of Cell Viability:
The HCT116 line (ATCC, CCL-247) derived from colon cancer was cultured in MEM (Minimum Essential Medium Eagle) supplemented with 2 mM L-glutamine (Sigma, G7513), 5% fetal calf serum (Sigma, F7524) and antibiotics (Sigma, A59-55). The protocol for determining cytotoxic activity consists in seeding cells on 96-well plates (Perkin Elmer, 6005668) at a density of 1500 cells per well. After 24 hours of incubation, the test compound is applied in each well, using serial dilutions in the solvent dimethylsulfoxide (DMSO) (Sigma, D8418), from 10 mM stock solutions in 100% DMSO. Each dilution was added to the cells 24 hours after seeding. Under these conditions, the final solvent concentration is 0.1% DMSO. A reading of cell proliferation was carried out 72 hours after addition of the products with the ATPLite™ kit (Perkin Elmer, 6016947) and according to the manufacturer's recommendations. The analysis of the proliferation results was carried out by comparison with conditions where only the carrier solvent (culture medium, 0.1% DMSO) was added to the cells. The dose-response curves obtained were analyzed using the PRISM 4.03 software (GraphPad Software Inc.), or by an equivalent analytical method, to determine the concentration of each compound which inhibits 50% of cell proliferation (EC50).
By way of example, the cytotoxic properties of several compounds of the invention evaluated on the HCT116 line (human colon cancer cell line) are reported in Table 1.

[2] = tested on: MDA-MB-231 human tumor xenograft; assay: Antitumor activity, subcutaneous MDA-MB-231 breast cancer xenografts in SCID mice; format: in vivo; settings: for Activity: q1d5 × 3, MDA-MB-231; for Deaths (%): q1d5 × 3, SCID mice
Protocol: Subcutaneous xenografts were established with MDA-MD-231 breast cancer cells (ATCC: HTB-26) in SCID mice (Harlan, U.K.). The animals were treated and cared after in accordance with the Guide For the Care and Use of Laboratory Animals (National Research Council, 1996) and with European Directive 86/609/EEC, under the supervision of a staff expert authorized to conduct experimental studies with laboratory animals.
All the experiments were conducted pursuant to French and local regulations (Department of Veterinary Services, Haute-Garonne, Toulouse) according to the directives of an ethics committee, based on the UKCCCR Guidelines for the Welfare of Animals in Experimental Neoplasia, as indicated above. The implantation of MDA-MB-231 human tumor fragments is carried subcutaneously in the flanks of SCID mice using a trocar and, for the study of tumor growth, the tumors are allowed to reach a median volume of 70-130 mm^3 before starting the studies.
After randomization in the treatment cages, the inhibitors were administered intravenously according to a g1d5×3 treatment scheme (5 injections per week for 3 weeks). The mice were monitored and weighed daily. The tumors were measured with a slide caliper and the tumor volumes (mm^3) were estimated using the following formula: volume=0.5 (length×width^2). Each experimental group consists of 5 individuals. The efficacy of the treatment was evaluated by analysis of the measurement of the median volume of the treated tumors compared with the median volume of the tumors receiving only carrier (control). The T/C evaluation criterion corresponds to: [(median volume of the treated group, T/median volume of the control group, C)×100]. This T/C ratio is expressed as a percentage. The optimal T/C value corresponds to the ratio which reflects the maximum inhibition of growth obtained during the study. The maximum gains or losses of weight, expressed as a percentage of the initial weight of the animals, as well as the percentage of drug-related deaths (i.e., the percentage of treated animals that died before the assessment) were used to provide an evaluation of the toxicity of the compounds. In accordance with the NCI (National Cancer Institute) criterion, a dose is deemed toxic if it induces weight loss greater than −20% relative to the initial weight of the mouse or if it induces more than 20% deaths (Corbett et al. J Exp Ther Oncol 1996, 1:95-108).

[3] = Mus musculus, MDA-MB-231, iv, read-out: Opt. T/C (%)

Row | Structure (SMILES) | EC50 [1] [nM] | Activity ([2]; 0.2 mg/kg intravenously) | Deaths (%) ([2]; 0.2 mg/kg intravenously) | response vs control in vivo at 0.2 mg/kg [2, 3] [%] | Activity ([2]; 1.4 mg/kg intravenously) | Deaths (%) ([2]; 1.4 mg/kg intravenously) | response vs control in vivo at 1.4 mg/kg [2, 3] [%] | Activity ([2]; 0.5 mg/kg intravenously) | Deaths (%) ([2]; 0.5 mg/kg intravenously) | Activity ([2]; 0.7 mg/kg intravenously) | Deaths (%) ([2]; 0.7 mg/kg intravenously) | Activity ([2]; 1 mg/kg intravenously) | Deaths (%) ([2]; 1 mg/kg intravenously) | response vs control in vivo at 0.5 mg/kg [2, 3] [%] | response vs control in vivo at 0.7 mg/kg [2, 3] [%] | toxicity ([2]; above a dose of 0.7 mg/kg) | antitumor activity ([2]; below a dose of 0.7 mg/kg)
1 | COC(=O)[C@H]1[C@@H](O)[C@@]2(O)c3c(OC)cc(OCCN)cc3O[C@@]2(c2ccc(OC)cc2)[C@@H]1c1ccccc1 (racemic) [Compound 2, rac-(1R,2R,3S,3aR,8bS)-methyl 6-(2-aminoethoxy)-1,8b-dihydroxy-8-methoxy-3a-(4-methoxyphenyl)-3-phenyl-2,3,3a,8b-tetrahydro-1H-cyclopenta[b]benzofuran-2-carboxylate] | 4.03 | Active | 0 | 37 |  |  |  |  |  |  |  |  |  |  |  |  | 
2 | COc1ccc([C@@]23Oc4cc(OC)cc(OC)c4[C@]2(O)[C@@H]2OC(=S)N[C@@H]2[C@H]3c2ccccc2)cc1 (racemic) [Compound 46, rac-(3aR,4R,4aR,9bS,9cR)-9b-hydroxy-7,9-dimethoxy-4a-(4-methoxyphenyl)-4-phenyl-3,3a,4,4a,9b,9c-hexahydro-2H-benzofuro[3′,2′:3,4]cyclopenta[1,2-d]oxazole-2-thione] | 2.59 |  |  |  | Active | 0 | 39 |  |  |  |  |  |  |  |  |  | 
3 | COC(=O)[C@H]1[C@@H](O)[C@@]2(O)c3c(OC)cc(O[C@@H]4O[C@@H]([C@H](O)CO)CO[C@H]4OC)cc3O[C@@]2(c2ccc(OC)cc2)[C@@H]1c1ccccc1 [silvestrol, reference compound] | 2.46 | No activity | 0 | 92 | Toxic | 100 |  | No activity | 0 | Toxic | 40 | Toxic | 100 | 83 | 63 | highly toxic | no antitumor activity
